According to patent US10955415B2, “CD247 as a biomarker for assessing the effect of chemotherapeutic and biological drugs” (YISSUM RESEARCH DEVELOPMENT COMPANY OF THE HEBREW …, priority 2011, dated 2021):
Entries after “also recorded” stand apart in the source; their conditions may differ.

Key:
MDSCs (Gr1+CD11b+) = tested on: MDSCs (Gr1+CD11b+); design: species or system mice; conditions: mouse, in vivo
[1] = Spleen weight and size, BCG chronic inflammation mouse model; type: in vivo; conditions: BCG-inflamed WT-mice, 2 days after third BCG injection
Experimental: FIG. 15B. Spleen weight (left) and size (right) in etanercept-treated and untreated mice (n=7) was evaluated 2 days following the third BCG injection. *P<0.003, **P<0.002 (t-test). Data are from two independent experiments (mean and s.d.).
Induced chronic inflammation in mice was established by sustained subcutaneous injections of the heat-killed Bacille Calmette Guerin strain of Mycobacterium tuberculosis, (231141; Difco Laboratories) (BCG, 50 μg per animal/dose) once a week, for three weeks. The first two BCG administrations were mixed 1:1 with Incomplete Freund's adjuvant (IFA) (Sigma), and the second boost delivery was given with PBS. Mice sacrifice and cell isolations were performed two days after the third injection. Spleen weight was measured and cells from the spleen and peripheral blood (PBLs) were analyzed. The results represent three independent experiments.

CD247 = assay: Adoptive transfer of CFSE-labeled normal splenocytes, CD247 in host and donor cells; type: in vivo, mice; conditions: BCG-inflamed hosts, 24 h after transfer, spleen
Experimental: CFSE-labeled splenocytes from normal mice (donor cells) were adoptively transferred into mice untreated, inflamed, and inflamed treated i.p. with irinotecan (hosts). After 24 h, splenocytes from each group were harvested and stained for CD247 expression (MFI) in CD3+ T cells within the CFSE+ (donor-cell) or CFSE− (host-cell) population. Data from three independent experiments (n=4) is presented. Statistical analyses using t test indicated significant differences at 95% Cl. Means and SEM are shown. * P<0.05. Abbreviations: Ho. (host), Do. (donor), cont. (control).
CFSE-labeled splenocytes from normal mice (donor cells) were adoptively transferred into non-inflamed, inflamed, and inflamed mice treated i.p. with 5-FU (hosts). After 24 h, splenocytes from each group were harvested and stained for CD247 expression (MFI) in CD3+ T cells within the CFSE+ (donor-cell) or CFSE− (host-cell) population. Data from three independent experiments (n=4) is presented. Statistical analyses using t test indicated significant differences at 95% Cl. Means and SEM are shown. *, P<0.05. Abbreviations: Ho. (host), Do. (donor), cont. (control).
Next, the effect of etanercept treatment on the host's immune status as well as on adoptively transferred T- and NK-cells was examined. It should be noted that adoptively transferred T- and NK-cells being a treatment that is frequently used today in different immunotherapeutic regiments for various pathologies. To this end, CFSE-labeled normal splenocytes were administered, i.v., 1 day before cell harvest, at the peak of the inflammatory response (mimicking cell mediated therapies).

[2] = tested on: CD11b+CD11c+ and CD11b+F4/80+ cells; assay: Myeloid differentiation state in spleen (DCs, macrophages, APC maturation); type: in vivo; conditions: BCG-inflamed mice
From the text: FIG. 18A-18E. Splenocytes and PBLs from mice untreated (naïve), inflamed, or inflamed and treated with 5-FU or CPT-11 were fixed, permeabilized, and double stained for the expression of CD247 (ζ-chain) (FIGS. 18A, 18B) and CD3ε-chain (FIGS. 18D, 18E), as shown by mean fluorescence intensity (MFI), measured in gated CD3^+ cells. FIG. 18C: Splenocytes from mice, naïve, inflamed and inflamed treated with 5-FU or CPT-11, were labeled with CFSE and activated with anti-CD3 and anti-CD28 antibodies or left non-activated. The proliferative response was assessed by monitoring cell divisions of gated CFSE-labeled Thy1.2+ (CD90+) T-cells. The percent of proliferating cells was calculated and compared to steady state levels of non-activated cells per each group. Data from three independent experiments is presented (n=3). Statistical analyses using t test indicated significant differences at 95%. Means and SEM are shown. *, P<0.05; **, P<0.01. FIG. 18F-18I. For the detection of myeloid differentiation state, splenocytes from each group were stained for (18F) DC11b^+CD11c^+ cells (representing DCs), (18G) DC11b^+F4/80^+ cells (representing monocytes), (18H) CD11c^+MHCII^+CD80^+ cells (representing fully differentiated […] as antigen presenting cells) and (18I) F4/80^+MHCII^+CD80^+ cells (representing fully differentiated […] as antigen presenting cells). Data from three independent experiments (n=4) is presented. Statistical analyses using t test indicated significant differences at 95%. Means and SEM are shown. *, P<0.05; **, P<0.01; ***, P<0.001. Abbreviations: Nor. (normal), Rel. (relative), Inf. (inflamed), ce. Pro. (cell proliferation)
Isolated splenocytes and peripheral blood leukocytes (PBLs) were treated with erythrocyte lysis buffer and washed in PBS. Cells were pre-coated with anti-CD16/CD32 (Biolegend) for FcR blockage. For surface staining, cells were incubated for 30 min at 4° C. with FITC-labeled anti-Gr1, anti-CD11c, and anti-CD4; PE-labeled anti F4/80, anti-CD3ε, anti-CD45R/B220, and anti-mNKp46; and biotinylated anti-CD11b and anti-CD8 that were detected with streptavidin-Cy5 (Biolegend and eBioscience). Intracellular staining of CD247 cells was performed by subjecting the cells to fixation with paraformaldehyde (1%) for 20 min at 4° C., followed by washing and permeabilization for 10 min with saponin detergent (0.1%) at room temperature (RT). Cells were then washed and incubated with FITC-labeled monoclonal anti-CD247 (H146) (Abcam), or biotinylated monoclonal anti-CD247 (H146), which were subsequently detected with streptavidin-Cy5. FoxP3 staining was performed according to the manufacturer's instructions. Samples were analyzed using FACSCalibur with Cell Quest software (BD).

CD4+Foxp3+ Treg cells = tested on: CD4+Foxp3+ Treg cells; design: species or system mice; conditions: mouse, in vivo
CD247 (ζ chain) = tested on: CD247 (ζ chain); design: species or system mice; conditions: mouse, in vivo; for increase in the expression value of CD247 upon treatment: ip
CD3ε chain = tested on: CD3ε chain; design: species or system mice; conditions: mouse, in vivo
MDSCs = type: in vivo, mice; conditions: spleen of BCG-inflamed mice, monotherapy, MFI

| Compound | MDSC levels in the spleen (MDSCs (Gr1+CD11b+)) | spleen size and weight [1] | CD247 expression in host and adoptively transferred donor NK cells (CD247) | CD247 expression in host and adoptively transferred donor T cells (CD247) | differentiated myeloid cells in spleen (CD11b+CD11c+ DCs, CD11b+F4/80+ macrophages) [2] | levels of Treg cells (CD4+Foxp3+) in spleen (CD4+Foxp3+ Treg cells) | CD247 expression in T cells, PBLs (CD247 (ζ chain)) | CD247 expression in T cells, spleen (CD247 (ζ chain)) | increase in the expression value of CD247 upon treatment (CD247 (ζ chain)) | CD3ε expression levels (CD3ε chain) | MDSC levels in peripheral blood (PBLs) (MDSCs (Gr1+CD11b+)) | NO production by MDSCs (MDSCs) | ROS production by MDSCs (MDSCs) |
| --- | --- | --- | --- | --- | --- | --- | --- | --- | --- | --- | --- | --- | --- |
| etanercept | decreased percentage of MDSCs | reduced spleen size and weight | significantly increased | significantly increased | significant increase |  |  |  |  |  |  |  |  |
| COc1cccc2c1C(=O)c1c(O)c3c(c(O)c1C2=O)C[C@@](O)(C(=O)CO)C[C@@H]3O[C@H]1C[C@H](N)[C@H](O)[C@H](C)O1 [Doxorubicin] | significant decline; also recorded: decrease; also recorded: reduced |  |  |  |  | not affected; also recorded: no change | clear increase | clear increase | about 24% | uniform among the different groups | significant decline; also recorded: decrease; also recorded: reduced |  |  |
| CS(=O)(=O)OCCCCOS(C)(=O)=O [Busulfan, 1,4-butanediol dimethanesulfonate] | significant decline; also recorded: decrease; also recorded: reduced |  |  |  |  | remained unchanged |  | initial recovery | about 23% | remained uniform among the different groups | significant decline; also recorded: decrease; also recorded: reduced |  |  |
| O=P1(N(CCCl)CCCl)NCCCO1 (stereo not shown) [Cyclophosphamide] | remained high; also recorded: significantly increased |  |  |  |  | decrease |  | down-regulation of CD247 that was observed in the course of chronic inflammation was maintained |  | remained normal | significantly increased; also recorded: significant accumulation | maintained high | maintained high |
